Source: patent US11180479B2 (HAPLOGEN GmbH, priority 2017, dated 2021)

Columns and labels:
[1] = system: picornaviruses (CVB1, HRV-A2, HRV-A23, EV-68); test: Anti-picornavirus cytopathic effect (CPE) reduction assay on HeLa H1 cells; format: cell-based; settings: 48 h, category from averaging EC50 values of four picornaviruses (CVB1, HRV-A2, HRV-A23, EV68), second symbol in parentheses
Method in brief: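 HeLa H1 cells pre-treated 2 h with serial compound dilutions in 2% FBS DMEM, then infected at an MOI giving full CPE in 2 days; after 48 h, viability by CellTiterBlue fluorescence (560/590 nm) normalised to infected and uninfected vehicle controls; EC50 by non-linear regression, averaged over the four viruses.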

PLA2G16 = target: T1, PLA2G16 (Homo sapiens, UniProt P53816); test: Enzyme activity assay for PLA2G16 (Red/Green BODIPY PC-A2 fluorescence); format: biochemical; settings: His-tagged PLA2G16, 4 min pre-incubation, compound 2 nM to 50 μM; first symbol in parentheses
T1 construct: Hexa-His (N); made in house; host or cells: E. coli BL21(DE3)
T1 sequence (P53816 1-162): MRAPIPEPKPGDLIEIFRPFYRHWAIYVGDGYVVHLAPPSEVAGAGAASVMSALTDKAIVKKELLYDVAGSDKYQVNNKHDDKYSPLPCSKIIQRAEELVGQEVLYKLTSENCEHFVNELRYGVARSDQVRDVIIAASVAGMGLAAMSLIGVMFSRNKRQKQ
Method in brief: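 N-His human PLA2G16 was expressed in E. coli and Ni-NTA purified. Enzyme in 5 mM glutathione was preincubated 4 min with compound (2 nM–50 μM final), then Red/Green BODIPY PC-A2 in DOPC/DOPG/cholesterol vesicles was added (50 mM Tris pH 8.5, 100 mM NaCl). Fluorescence increase (ex 480/em 530 nm) over 10 min gave activity; IC50 came from nonlinear regression.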

EC50 [1] | IC50 (PLA2G16) | Structure (SMILES)
1000 to 10000 nM | < 1000 nM | Cc1ncncc1N1C[C@H](C(=O)C(=O)NC2CC2)[C@@H](Cc2ccccc2)C1=O (racemic) [FP-67, Rac-2-[(3R,4R)-4-benzyl-1-(4-methylpyrimidin-5-yl)-5-oxopyrrolidin-3-yl]-N-cyclopropyl-2-oxoacetamide]
1000 to 10000 nM | < 1000 nM | Cc1ncncc1N1C[C@H](C(=O)C(=O)NCC(C)(F)F)[C@@H](Cc2ccccc2)C1=O (racemic) [FP-68, Rac-2-[(3R,4R)-4-benzyl-1-(4-methylpyrimidin-5-yl)-5-oxopyrrolidin-3-yl]-N-(2,2-difluoropropyl)-2-oxoacetamide]
< 1000 nM | < 1000 nM | O=C(NC1CC1)C(=O)[C@H]1CN(c2cccc(OCc3ccccc3)n2)C(=O)[C@@H]1Cc1ccccc1 (racemic) [FP-69, Rac-2-[(3R,4R)-4-benzyl-1-[6-(benzyloxy)pyridin-2-yl]-5-oxopyrrolidin-3-yl]-N-cyclopropyl-2-oxoacetamide]
< 1000 nM | < 1000 nM | O=C(NC1CC1)C(=O)[C@H]1CN(c2cccc(=O)[nH]2)C(=O)[C@@H]1Cc1ccccc1 (racemic) [FP-70, Rac-2-[(3R,4R)-4-benzyl-5-oxo-1-(6-oxo-1,6-dihydropyridin-2-yl)pyrrolidin-3-yl]-N-cyclopropyl-2-oxoacetamide]
< 1000 nM | < 1000 nM | O=C(NC1CC1)C(=O)[C@H]1CN(c2cc(Cl)cc(=O)[nH]2)C(=O)[C@@H]1Cc1ccccc1 (racemic) [FP-71, Rac-2-[(3R,4R)-4-benzyl-1-(4-chloro-6-oxo-1,6-dihydropyridin-2-yl)-5-oxopyrrolidin-3-yl]-N-cyclopropyl-2-oxoacetamide]
< 1000 nM | < 1000 nM | O=C(NC1CC1)C(=O)[C@H]1CN(c2cc(Cl)cc(OCc3ccccc3)n2)C(=O)[C@@H]1Cc1ccccc1 (racemic) [FP-72, Rac-2-[(3R,4R)-4-benzyl-1-[6-(benzyloxy)-4-chloropyridin-2-yl]-5-oxopyrrolidin-3-yl]-N-cyclopropyl-2-oxoacetamide]
< 1000 nM | < 1000 nM | CC(F)(F)CNC(=O)C(=O)[C@H]1CN(c2cccc(OCc3ccccc3)n2)C(=O)[C@@H]1Cc1ccccc1 (racemic) [FP-73, Rac-2-[(3R,4R)-4-benzyl-1-[6-(benzyloxy)pyridin-2-yl]-5-oxopyrrolidin-3-yl]-N-(2,2-difluoropropyl)-2-oxoacetamide]
< 1000 nM | < 1000 nM | CC(F)(F)CNC(=O)C(=O)[C@H]1CN(c2cccc(=O)[nH]2)C(=O)[C@@H]1Cc1ccccc1 (racemic) [FP-74, Rac-2-[(3R,4R)-4-benzyl-5-oxo-1-(6-oxo-1,6-dihydropyridin-2-yl)pyrrolidin-3-yl]-N-(2,2-difluoropropyl)-2-oxoacetamide]
< 1000 nM | < 1000 nM | Cn1cc(N2C[C@H](C(=O)C(=O)NC3CC3)[C@@H](Cc3ccccc3)C2=O)cn1 (racemic) [FP-75, Rac-2-[(3R,4R)-4-benzyl-1-(1-methyl-1H-pyrazol-4-yl)-5-oxopyrrolidin-3-yl]-N-cyclopropyl-2-oxoacetamide]
< 1000 nM | < 1000 nM | Cn1cc(N2C[C@H](C(=O)C(=O)NCC(C)(F)F)[C@@H](Cc3ccccc3)C2=O)cn1 (racemic) [FP-76, Rac-2-[(3R,4R)-4-benzyl-1-(1-methyl-1H-pyrazol-4-yl)-5-oxopyrrolidin-3-yl]-N-(2,2-difluoropropyl)-2-oxoacetamide]
1000 to 10000 nM | < 1000 nM | CC(C)ONC(=O)C(=O)[C@H]1CNC(=O)[C@@H]1Cc1ccc(F)cc1 (racemic) [FP-77, Rac-2-[(3R,4R)-4-[(4-fluorophenyl)methyl]-5-oxopyrrolidin-3-yl]-2-oxo-N-(propan-2-yloxy)acetamide]
1000 to 10000 nM | < 1000 nM | CC(C)NC(=O)C(=O)[C@H]1CNC(=O)[C@@H]1c1ccccc1 (racemic) [FP-78, Rac-2-oxo-2-[(3R,4S)-5-oxo-4-phenylpyrrolidin-3-yl]-N-(propan-2-yl)acetamide]
< 1000 nM | < 1000 nM | O=C(NC1CCCC1)C(=O)[C@H]1CNC(=O)[C@@H]1c1ccccc1 (racemic) [FP-79, Rac-N-cyclopentyl-2-oxo-2-[(3R,4S)-5-oxo-4-phenylpyrrolidin-3-yl]acetamide]
< 1000 nM | < 1000 nM | CC(C)CNC(=O)C(=O)[C@H]1CNC(=O)[C@@H]1Cc1ccccn1 (racemic) [FP-80, Rac-N-(2-methylpropyl)-2-oxo-2-[(3R,4R)-5-oxo-4-[(pyridin-2-yl)methyl]pyrrolidin-3-yl]acetamide]
1000 to 10000 nM | < 1000 nM | O=C(NC1CC1)C(=O)[C@H]1CN(Cc2ccccc2)C(=O)[C@@H]1c1ccccc1 (racemic) [FP-99, Rac-2-[(3R,4S)-1-benzyl-5-oxo-4-phenylpyrrolidin-3-yl]-N-cyclopropyl-2-oxoacetamide]

Continued, compound first:

Structure (SMILES) | EC50 [1] | IC50 (PLA2G16)
Cn1ncnc1CN1C[C@H](C(=O)C(=O)NCC(C)(F)F)[C@@H](Cc2ccc(F)cc2)C1=O (racemic) [FP-53, Rac-N-(2,2-difluoropropyl)-2-[(3R,4R)-4-[(4-fluorophenyl)methyl]-1-[(1-methyl-1H-1,2,4-triazol-5-yl)methyl]-5-oxopyrrolidin-3-yl]-2-oxoacetamide] | 1000 to 10000 nM | < 1000 nM
O=C(NC1CC1)C(=O)[C@H]1CN(c2cncnc2)C(=O)[C@@H]1Cc1ccccc1 (racemic) [FP-54, Rac-2-[(3R,4R)-4-benzyl-5-oxo-1-(pyrimidin-5-yl)pyrrolidin-3-yl]-N-cyclopropyl-2-oxoacetamide] | < 1000 nM | < 1000 nM
CCNC(=O)C(=O)[C@H]1CN(c2cncnc2)C(=O)[C@@H]1Cc1ccccc1 (racemic) [FP-55, Rac-2-[(3R,4R)-4-benzyl-5-oxo-1-(pyrimidin-5-yl)pyrrolidin-3-yl]-N-ethyl-2-oxo-acetamide] | < 1000 nM | < 1000 nM
CC(F)(F)CNC(=O)C(=O)[C@H]1CN(c2cncnc2)C(=O)[C@@H]1Cc1ccccc1 (racemic) [FP-56, Rac-2-[(3R,4R)-4-benzyl-5-oxo-1-(pyrimidin-5-yl)pyrrolidin-3-yl]-N-(2,2-difluoropropyl)-2-oxoacetamide] | < 1000 nM | < 1000 nM
O=C(NC1CC1)C(=O)[C@H]1CN(c2cnccn2)C(=O)[C@@H]1Cc1ccccc1 (racemic) [FP-57, Rac-2-[(3R,4R)-4-benzyl-5-oxo-1-(pyrazin-2-yl)pyrrolidin-3-yl]-N-cyclopropyl-2-oxoacetamide] | < 1000 nM | < 1000 nM
O=C(NC1CC1)C(=O)[C@H]1CN(c2ncccn2)C(=O)[C@@H]1Cc1ccccc1 (racemic) [FP-58, Rac-2-[(3R,4R)-4-benzyl-5-oxo-1-(pyrimidin-2-yl)pyrrolidin-3-yl]-N-cyclopropyl-2-oxoacetamide] | 1000 to 10000 nM | < 1000 nM
CCNC(=O)C(=O)[C@H]1CN(c2ncccn2)C(=O)[C@@H]1Cc1ccccc1 (racemic) [FP-59, Rac-2-[(3R,4R)-4-benzyl-5-oxo-1-(pyrimidin-2-yl)pyrrolidin-3-yl]-N-ethyl-2-oxo-acetamide] | 1000 to 10000 nM | < 1000 nM
O=C(NC1CC1)C(=O)[C@H]1CN(c2ccnc(Cl)n2)C(=O)[C@@H]1Cc1ccccc1 (racemic) [FP-60, Rac-2-[(3R,4R)-4-benzyl-1-(2-chloropyrimidin-4-yl)-5-oxopyrrolidin-3-yl]-N-cyclopropyl-2-oxoacetamide] | 1000 to 10000 nM | < 1000 nM
O=C(NC1CC1)C(=O)[C@H]1CN(c2ccncn2)C(=O)[C@@H]1Cc1ccccc1 (racemic) [FP-61, Rac-2-[(3R,4R)-4-benzyl-5-oxo-1-(pyrimidin-4-yl)pyrrolidin-3-yl]-N-cyclopropyl-2-oxoacetamide] | 1000 to 10000 nM | < 1000 nM
O=C(NC1CC1)C(=O)[C@H]1CN(c2ccc(Cl)nn2)C(=O)[C@@H]1Cc1ccccc1 (racemic) [FP-62, Rac-2-[(3R,4R)-4-benzyl-1-(6-chloropyridazin-3-yl)-5-oxopyrrolidin-3-yl]-N-cyclopropyl-2-oxoacetamide] | < 1000 nM | < 1000 nM
O=C(NC1CC1)C(=O)[C@H]1CN(c2cncnc2)C(=O)[C@@H]1c1ccccc1 (racemic) [FP-63, Rac-N-cyclopropyl-2-oxo-2-[(3R,4S)-5-oxo-4-phenyl-1-(pyrimidin-5-yl)pyrrolidin-3-yl]acetamide] | 1000 to 10000 nM | < 1000 nM
O=C(NCC1CC1)C(=O)[C@H]1CN(c2cncnc2)C(=O)[C@@H]1c1ccccc1 (racemic) [FP-64, Rac-N-(cyclopropylmethyl)-2-oxo-2-[(3R,4S)-5-oxo-4-phenyl-1-(pyrimidin-5-yl)pyrrolidin-3-yl]acetamide] | 1000 to 10000 nM | < 1000 nM
N#Cc1ncncc1N1C[C@H](C(=O)C(=O)NC2CC2)[C@@H](Cc2ccccc2)C1=O (racemic) [FP-65, Rac-2-[(3R,4R)-4-benzyl-1-(4-cyanopyrimidin-5-yl)-5-oxopyrrolidin-3-yl]-N-cyclopropyl-2-oxoacetamide] | 1000 to 10000 nM | < 1000 nM
CC(F)(F)CNC(=O)C(=O)[C@H]1CN(c2cncnc2C#N)C(=O)[C@@H]1Cc1ccccc1 (racemic) [FP-66, Rac-2-[(3R,4R)-4-benzyl-1-(4-cyanopyrimidin-5-yl)-5-oxopyrrolidin-3-yl]-N-(2,2-difluoropropyl)-2-oxoacetamide] | 1000 to 10000 nM | < 1000 nM
